Data: ChEMBL document CHEMBL3046372, “Design, Synthesis and Growth Inhibition Activity of Bis-Epoxyethyl Derivatives of Stallimycin Modified on the Amidino Moiety” (Med Chem Res, 2004)

Columns and labels:
[1] = test system: K562; experiment: Induction of erythroid differentiation in Homo sapiens (human) K562 cells assessed as benzidine-positive cells at IC50 after 6 days; type: functional
[2] = test system: K562; experiment: Induction of erythroid differentiation in Homo sapiens (human) K562 cells assessed as benzidine-positive cells at IC50 after 4 days; type: functional
[3] = test system: L1210; experiment: Ratio of distamycin-A IC50 to compound IC50 for Mus musculus (mouse) L1210 cells; type: functional
[4] = test system: K562; experiment: Cytotoxicity against Homo sapiens (human) K562 cells after 72 hr; type: functional, cell-based; conditions: K562, 72 h
[5] = test system: L1210; experiment: Cytotoxicity against Mus musculus (mouse) L1210 cells after 72 hr; type: functional, cell-based; conditions: L1210, 72 h

Compound | Activity [1] | Activity [2] | Ratio IC50 [3] | IC50 [4] | IC50 [5]
Cn1cc(NC(=O)c2cc(NC(=O)c3cc(N(CC4CO4)CC4CO4)cn3C)cn2C)cc1C(=O)NCCC(N)=O (stereo not given) | 16% | 15% | 4 | 25 µM | 35 µM
CNC(=O)CCNC(=O)c1cc(NC(=O)c2cc(NC(=O)c3cc(N)cn3C)cn2C)cn1C |  |  |  | > 50 µM | > 50 µM
Cl.Cl.Cn1cc(NC(=O)c2cc(NC(=O)c3cc(NC=O)cn3C)cn2C)cc1C(=O)NCCC(=N)N | 10% | 8% |  | 10 µM | 50 µM
CNC(=O)CCNC(=O)c1cc(NC(=O)c2cc(NC(=O)c3cc(N(CC4CO4)CC4CO4)cn3C)cn2C)cn1C (stereo not given) | 15% | 12% | 4 | 25 µM | 38 µM
Cn1cc(NC(=O)c2cc(NC(=O)c3cc(N)cn3C)cn2C)cc1C(=O)NCCC(N)=O |  |  |  | 45 µM | > 50 µM
Cn1cc(NC(=O)c2cc(NC(=O)c3cc(N)cn3C)cn2C)cc1C(=O)NCC/C(N)=N/C#N |  |  |  | > 50 µM | > 50 µM
Cn1cc(NC(=O)c2cc(NC(=O)c3cc(N)cn3C)cn2C)cc1C(=O)NCC/C(N)=N/O |  |  |  | > 50 µM | > 50 µM
Cn1cc(NC(=O)c2cc(NC(=O)c3cc(N(CC4CO4)CC4CO4)cn3C)cn2C)cc1C(=O)NCC/C(N)=N/C#N (stereo not given) | 65.3% | 46.3% |  | 1 µM | 6.3 µM
Cn1cc(NC(=O)c2cc(NC(=O)c3cc(N(CC4CO4)CC4CO4)cn3C)cn2C)cc1C(=O)NCC/C(N)=N/O (stereo not given) | 13% | 11% |  | 12 µM | 18 µM
